Experimental data published in ChEMBL document CHEMBL1268849, “A conformationally constrained inhibitor with an enhanced potency for β-tryptase and stability against semicarbazide-sensitive amine oxidase (SSAO)” (Bioorg Med Chem Lett, 2010).

Legend:
[1] = Inhibition of human tryptase-beta using chromogenic substrate S-2366 after 30 mins by spectrophotometry
[2] = system: semicarbazide-sensitive amine oxidase (SSAO); test: Chemical stability in presence of 56 ug/mL of human recombinant semicarbazide-sensitive amine oxidase assessed as compound remaining after 24 hrs by LC/MS method; type: physicochemical; details: read-out: Stability
[3] = Metabolic stability in human liver microsomes after 20 mins; type: ADME, Microsome; details: read-out: Stability
[4] = Metabolic stability in guinea pig liver microsomes after 20 mins; type: ADME, Cavia porcellus, Microsome; details: read-out: Stability
[5] = Metabolic stability in rat liver microsomes after 20 mins; type: ADME, Microsome; details: read-out: Stability
hERG (KCNH2) = hERG (KCNH2) (Homo sapiens, UniProt Q12809); test: Inhibition of human ERG at 10 uM
Cytochrome P450 3A4 = Cytochrome P450 3A4 (Homo sapiens, UniProt P08684); test: Inhibition of CYP3A4; type: ADME
Sequence of Cytochrome P450 3A4 (P08684 whole entry): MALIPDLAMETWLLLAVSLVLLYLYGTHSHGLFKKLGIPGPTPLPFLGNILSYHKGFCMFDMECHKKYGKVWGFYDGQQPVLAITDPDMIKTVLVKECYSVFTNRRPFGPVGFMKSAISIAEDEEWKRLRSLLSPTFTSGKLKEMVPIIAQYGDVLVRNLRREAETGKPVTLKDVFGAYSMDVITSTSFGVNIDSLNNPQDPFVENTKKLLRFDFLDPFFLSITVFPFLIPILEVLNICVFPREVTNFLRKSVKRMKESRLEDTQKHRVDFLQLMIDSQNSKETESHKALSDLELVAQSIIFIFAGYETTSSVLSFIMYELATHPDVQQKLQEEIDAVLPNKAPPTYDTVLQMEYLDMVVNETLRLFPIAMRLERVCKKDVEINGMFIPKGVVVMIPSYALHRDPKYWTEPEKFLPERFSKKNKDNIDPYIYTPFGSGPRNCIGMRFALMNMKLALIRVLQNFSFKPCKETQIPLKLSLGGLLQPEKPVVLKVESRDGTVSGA

Sequence of hERG (KCNH2) (Q12809 whole entry): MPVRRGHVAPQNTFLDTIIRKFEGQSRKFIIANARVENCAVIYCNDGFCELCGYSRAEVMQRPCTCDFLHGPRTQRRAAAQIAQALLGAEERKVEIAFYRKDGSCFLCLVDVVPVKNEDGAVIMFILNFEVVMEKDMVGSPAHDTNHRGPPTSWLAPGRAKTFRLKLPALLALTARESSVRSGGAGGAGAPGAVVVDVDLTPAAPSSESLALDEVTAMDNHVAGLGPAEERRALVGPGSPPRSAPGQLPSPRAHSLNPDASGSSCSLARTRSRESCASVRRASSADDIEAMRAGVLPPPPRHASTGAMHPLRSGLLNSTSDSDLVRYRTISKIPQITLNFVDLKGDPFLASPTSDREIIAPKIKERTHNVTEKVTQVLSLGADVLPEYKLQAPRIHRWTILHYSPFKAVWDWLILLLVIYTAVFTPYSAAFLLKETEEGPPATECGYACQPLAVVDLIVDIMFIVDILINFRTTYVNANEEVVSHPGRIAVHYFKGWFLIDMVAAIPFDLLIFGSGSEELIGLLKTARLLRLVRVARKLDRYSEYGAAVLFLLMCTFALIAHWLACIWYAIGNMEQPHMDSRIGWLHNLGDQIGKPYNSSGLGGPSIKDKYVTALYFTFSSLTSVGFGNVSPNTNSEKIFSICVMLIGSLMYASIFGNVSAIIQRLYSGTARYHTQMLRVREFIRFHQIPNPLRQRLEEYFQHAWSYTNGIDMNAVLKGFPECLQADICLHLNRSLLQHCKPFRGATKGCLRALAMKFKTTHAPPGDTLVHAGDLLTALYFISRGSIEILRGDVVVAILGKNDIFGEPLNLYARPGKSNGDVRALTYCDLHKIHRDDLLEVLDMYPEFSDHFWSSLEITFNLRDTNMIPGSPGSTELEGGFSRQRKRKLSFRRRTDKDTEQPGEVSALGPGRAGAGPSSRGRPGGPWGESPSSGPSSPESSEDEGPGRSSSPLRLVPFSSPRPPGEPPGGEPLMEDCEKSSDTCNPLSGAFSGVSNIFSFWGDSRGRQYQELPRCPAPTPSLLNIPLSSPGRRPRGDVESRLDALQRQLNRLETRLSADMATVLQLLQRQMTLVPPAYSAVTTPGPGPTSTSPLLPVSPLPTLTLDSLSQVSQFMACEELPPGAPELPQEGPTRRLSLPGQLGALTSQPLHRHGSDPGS

| SMILES | Ki [1] | remaining at 24 h [2] | remaining at 20 min [3] | remaining at 20 min [4] | remaining at 20 min [5] | inhibition at 10 µM (hERG (KCNH2)) | INH (Cytochrome P450 3A4) |
| --- | --- | --- | --- | --- | --- | --- | --- |
| COCCn1cc(C(=O)N2CCC(c3cc(CN)ccc3F)CC2)c2c(C(=O)N(C)C)cccc21.Cl | 20 nM | 100% | 67% | 69% | 92% | 16% | > 30 µM |
| COCCn1cc(C(=O)N2CCC(c3cc(CN)ccc3F)CC2)c2ccccc21 | 54.2 nM | 67% | – | – | – | – | – |
